# Experimental data published in PMC10817917, “Alkyl deoxyglycoside-polymyxin combinations against critical priority carbapenem-resistant gram-negative bacteria” (Scientific Reports, 2024).
# Entries after “also recorded” stand apart in the source; their conditions may differ. Where two headings read alike, the source gives them in different places.
# What was measured:
# A. baumannii CQ4322 = experiment: Broth microdilution MIC/MBC, glycosides with or without polymyxins; assay type: cell-based, Acinetobacter baumannii; conditions: for MIC: Acinetobacter baumannii, CQ4322
# K. pneumoniae CQ1942 = experiment: Broth microdilution MIC, glycosides with or without polymyxins; assay type: cell-based, Klebsiella pneumoniae; conditions: for MIC: Klebsiella pneumoniae, CQ1942
# P. aeruginosa CQ4924 = experiment: as above; assay type: cell-based, Pseudomonas aeruginosa; conditions: for MIC: Pseudomonas aeruginosa, CQ4924
# E. coli NCTC 13846 = experiment: Broth microdilution MIC/MBC, glycosides with or without polymyxins; assay type: cell-based, Escherichia coli; conditions: strain B
# [1] = PE vs phosphatidylcholine (PC); cited from earlier work
# [2] = alone, read-out: MICA (MIC of each compound individually)
# [3] = combination with the lowest FICI
# [4] = compound + colistin, lowest FICI
compound,measurement,setting,value
"CCCCCCCCCCCCO[C@@H]1C[C@@H](O)[C@H](O)[C@@H](CO)O1 [Compound 4, dodecyl 2-deoxy-α-D-arabino-hexopyranoside]",MIC,"A. baumannii CQ4322; agent alone, no adjuvant (polymyxin conc. 0), strain G, read-out: MIC",> 100 µg/mL
same,MIC,A. baumannii CQ4322; [2],> 100 µg/mL
same,MIC of colistin in combination with the compound,"A. baumannii CQ4322; Cpd conc. 0.4 μg/mL, strain G",0.5 µg/mL
same,MIC of colistin in combination with the compound,"A. baumannii CQ4322; Cpd conc. 0.8 μg/mL, strain G",0.5 µg/mL
same,MIC of colistin in combination with the compound,"A. baumannii CQ4322; Cpd conc. 3.125 μg/mL, strain G",0.5 µg/mL
same,MIC of colistin in combination with the compound,"A. baumannii CQ4322; Cpd conc. 6.25 μg/mL, strain G",0.5 µg/mL
same,MIC of colistin in combination with the compound,"A. baumannii CQ4322; Cpd conc. 12.5 μg/mL, strain G",0.5 µg/mL
same,MIC of colistin in combination with the compound,"A. baumannii CQ4322; Cpd conc. […], strain G",0.5 µg/mL
same,MIC of compound in combination with PMB,"A. baumannii CQ4322; PMB 0.25 μg/mL, strain G",> 100 µg/mL
same,MIC of compound in combination with colistin,"A. baumannii CQ4322; colistin 0.25 μg/mL, strain G",> 100 µg/mL
same,MIC of compound in combination with colistin,"A. baumannii CQ4322; colistin 0.5 μg/mL, strain G",≤ 0.1 µg/mL
same,MICA(A + B) (MIC of compound in combination with colistin),A. baumannii CQ4322; [3],0.4 µg/mL
same,MICB(A + B) (MIC of colistin in combination with compound),A. baumannii CQ4322; [3],0.5 µg/mL
same,Interpretation (of FICI),A. baumannii CQ4322; compound + colistin,Indifferent (1.0 to 4.0 were indifferent)
same,FICI,A. baumannii CQ4322; [4],1.002
same,MIC of colistin in combination with the compound,"K. pneumoniae CQ1942; Cpd conc. 0.4 μg/mL, strain E",0.5 µg/mL
same,MIC of colistin in combination with the compound,"K. pneumoniae CQ1942; Cpd conc. 0.8 μg/mL, strain E",0.5 µg/mL
same,MIC of colistin in combination with the compound,"K. pneumoniae CQ1942; Cpd conc. 3.125 μg/mL, strain E",0.5 µg/mL
same,MIC of colistin in combination with the compound,"K. pneumoniae CQ1942; Cpd conc. 6.25 μg/mL, strain E",0.5 µg/mL
same,MIC of colistin in combination with the compound,"K. pneumoniae CQ1942; Cpd conc. 12.5 μg/mL, strain E",0.5 µg/mL
same,MIC of colistin in combination with the compound,"K. pneumoniae CQ1942; Cpd conc. […], strain E",0.5 µg/mL
same,MIC,"K. pneumoniae CQ1942; agent alone, no adjuvant (polymyxin conc. 0), strain E, read-out: MIC",> 100 µg/mL
same,MIC,K. pneumoniae CQ1942; [2],> 100 µg/mL
same,MIC of compound in combination with PMB,"K. pneumoniae CQ1942; PMB 0.25 μg/mL, strain E",> 100 µg/mL
same,MIC of compound in combination with PMB,"K. pneumoniae CQ1942; PMB 0.5 μg/mL, strain E",1.6 µg/mL
same,MIC of compound in combination with colistin,"K. pneumoniae CQ1942; colistin 0.25 μg/mL, strain E",> 100 µg/mL
same,MIC of compound in combination with colistin,"K. pneumoniae CQ1942; colistin 0.5 μg/mL, strain E",≤ 0.1 µg/mL
same,MICA(A + B) (MIC of compound in combination with colistin),K. pneumoniae CQ1942; [3],0.4 µg/mL
same,MICB(A + B) (MIC of colistin in combination with compound),K. pneumoniae CQ1942; [3],0.5 µg/mL
same,Interpretation (of FICI),K. pneumoniae CQ1942; compound + colistin,Indifferent (1.0 to 4.0 were indifferent)
same,FICI,K. pneumoniae CQ1942; [4],1.002
same,MIC of colistin in combination with the compound,"P. aeruginosa CQ4924; Cpd conc. 0.4 μg/mL, strain H",> 0.5 µg/mL
same,MIC of colistin in combination with the compound,"P. aeruginosa CQ4924; Cpd conc. 0.8 μg/mL, strain H",> 0.5 µg/mL
same,MIC of colistin in combination with the compound,"P. aeruginosa CQ4924; Cpd conc. 3.125 μg/mL, strain H",> 0.5 µg/mL
same,MIC of colistin in combination with the compound,"P. aeruginosa CQ4924; Cpd conc. 6.25 μg/mL, strain H",> 0.5 µg/mL
same,MIC of colistin in combination with the compound,"P. aeruginosa CQ4924; Cpd conc. 12.5 μg/mL, strain H",> 0.5 µg/mL
same,MIC of colistin in combination with the compound,"P. aeruginosa CQ4924; Cpd conc. […], strain H",> 0.5 µg/mL
same,MIC of compound in combination with PMB,"P. aeruginosa CQ4924; PMB 0.25 μg/mL, strain H",> 100 µg/mL
same,MIC of compound in combination with PMB,"P. aeruginosa CQ4924; PMB 0.5 μg/mL, strain H",> 100 µg/mL
same,MIC,"P. aeruginosa CQ4924; agent alone, no adjuvant (polymyxin conc. 0), strain H, read-out: MIC",> 100 µg/mL
same,MIC,P. aeruginosa CQ4924; [2],> 100 µg/mL
same,MIC of compound in combination with colistin,"P. aeruginosa CQ4924; colistin 0.25 μg/mL, strain H",> 100 µg/mL
same,MIC of colistin in combination with the compound,E. coli NCTC 13846; Cpd conc. 0.4 μg/mL,> 0.5 µg/mL
same,MIC of colistin in combination with the compound,E. coli NCTC 13846; Cpd conc. 0.8 μg/mL,> 0.5 µg/mL
same,MIC of colistin in combination with the compound,E. coli NCTC 13846; Cpd conc. 3.125 μg/mL,> 0.5 µg/mL
same,MIC of colistin in combination with the compound,E. coli NCTC 13846; Cpd conc. 6.25 μg/mL,> 0.5 µg/mL
same,MIC of colistin in combination with the compound,E. coli NCTC 13846; Cpd conc. 12.5 μg/mL,> 0.5 µg/mL
same,MIC of colistin in combination with the compound,E. coli NCTC 13846; Cpd conc. […],> 0.5 µg/mL
same,MIC,"E. coli NCTC 13846; Escherichia coli, NCTC13846, agent alone, no adjuvant (polymyxin conc. 0), read-out: MIC",> 100 µg/mL
same,MIC of compound in combination with PMB,E. coli NCTC 13846; PMB 0.25 μg/mL,> 100 µg/mL
same,MIC of compound in combination with PMB,E. coli NCTC 13846; PMB 0.5 μg/mL,> 100 µg/mL
same,MIC of compound in combination with colistin,E. coli NCTC 13846; colistin 0.25 μg/mL,> 100 µg/mL
same,MIC of compound in combination with colistin,E. coli NCTC 13846; colistin 0.5 μg/mL,> 100 µg/mL
same,interaction with phosphatidylethanolamine (PE),[1],Non PE-binder; also recorded: limited affinity towards PE
